One test concerns the target PIP4K2A (Homo sapiens, UniProt P48426). Kind of test: ADP-Glo kinase assay with purified PIP4K2A and PI([…])P. It counts as biochemical. On the technique in general: In ADP-Glo the light output rises with the ADP produced.
In a further test the target is T1, Ferrochelatase (Homo sapiens, UniProt P22830).
T1 construct: gene FECH
The test is described as follows: MS-CETSA thermal shift in normal BJ cell lysate, […] compound (off-target hit). It counts as cell-based.

The target of another test is PIP4K2C (Homo sapiens, UniProt Q8TBX8). Kind of test: MS-CETSA thermal shift in normal BJ cell lysate, […] compound. It counts as cell-based.
In the next test the test system is A549. The test is described as follows: cells. Also on record: MTT cell viability/proliferation assay, absorbance 540 minus 660 nm, GI50 by non-linear regression. The note with it: Homo sapiens, A549; cancer cells, 72 h MTT. Here is the method:
(§1) Cells were plated in 96-well microplates on day 0, and a131 was added to each well on day 1 at a range of different concentrations (from 0.1 to 40 μM) in triplicate. After 3 days of culture, the number of viable cells was determined using MTT cell proliferation assays by adding thiazolyl blue tetrazolium bromide (MTT reagent, Invitrogen) at a concentration of 0.5 mg/ml to each well and incubating for 4 h at 37 °C. The medium was then removed, and the blue dye remaining in each well was dissolved in DMSO by mixing with a microplate mixer. The absorbance of each well was measured at 540 and 660 nm using a microplate reader (Benchmark plus, Bio-Rad). Optical density (OD) values were calculated by subtracting the absorbance at 660 nm from the absorbance at 540 nm. Mean OD values from control cells containing only DMSO-treated wells were set as 100% viable. […] Mean values with ± standard deviation (S.D.) are shown (n = 3). c, d Normal and transformed BJ cells were treated with a131 at 2.5 μM for 48 h. c FACS analysis using BrdU and PI double staining of the indicated cells. Percentages of BrdU-positive (S) population indicating cell cycle arrest and subG1 (<2N) population indicating cell death are shown. Representative FACS analysis shown (n = 3). d Immunoblot analysis of cleaved PARP and caspase-3 (Cas-3) indicating a131-induced apoptosis in transformed BJ cells (lanes 5, 6), but not normal counterparts (lanes 2, 3). Representative immunoblots shown (n = 3). e MTT assay of human normal and cancer cell lines treated with a131 for 72 h (n = 3). Mean concentration values for a131 to achieve 50% growth inhibition (GI50) in each cell line are plotted with ± S.D. f FACS analysis of a series of engineered BJ-derived fibroblasts treated with a131 at 5 µM for 48 h. Mean values of subG1 (<2N) population ± S.D. are shown (n > 3). g, h Normal and transformed BJ cells stably expressing GFP-histone H2B were treated with a131 at 2.5 μM for 32 h prior to fixation. g Immunofluorescence analysis with representative images (n = 3). h Quantification of cells (n > 100 per condition) with the indicated centrosome numbers. Mean values ± S.D. are shown (n = 3). i Mice bearing established tumor xenografts were treated orally (PO) or intraperitoneally (IP) twice daily with the indicated doses of a131 or its derivative b5. Tumor volumes were calculated periodically as indicated. Paclitaxel (PTX) was administered intravenously for twice every 4 days. Mean tumor volumes ± S.D. from six mice are shown. Two-way ANOVA was performed to determine statistical significance compared to vehicle control. j, k TUNEL staining (j) or immu

The test system of another test is AGS. Kind of test: cells. Also on record: MTT cell viability/proliferation assay, absorbance 540 minus 660 nm, GI50 by non-linear regression. As to conditions: Homo sapiens, AGS; cancer cells, 72 h MTT. On the procedure: as §1
In the next test the test system is HCT116. Kind of test: cells. On the set-up: MTT cell viability/proliferation assay, absorbance 540 minus 660 nm, GI50 by non-linear regression. As to conditions: Homo sapiens, HCT-116; cancer cells, 72 h MTT. Here is the method:
as §1

The test system of a further test is HCT15. The test is described as follows: cells. On the set-up: MTT cell viability/proliferation assay, absorbance 540 minus 660 nm, GI50 by non-linear regression. As to conditions: Homo sapiens, HCT-15; cancer cells, 72 h MTT. On the procedure:
as §1

The next test relates to HGC27. The test is described as follows: cells. Also on record: MTT cell viability/proliferation assay, absorbance 540 minus 660 nm, GI50 by non-linear regression. The note with it: Homo sapiens, HGC-27; cancer cells, 72 h MTT. On the procedure:
as §1

The test system of the next test is HT29. The test is described as follows: cells. On the set-up: MTT cell viability/proliferation assay, absorbance 540 minus 660 nm, GI50 by non-linear regression. The note with it: Homo sapiens, HT-29; cancer cells, 72 h MTT. On the procedure: as §1
A further test has as its system HeLa. The test is described as follows: cells. On the set-up: MTT cell viability/proliferation assay, absorbance 540 minus 660 nm, GI50 by non-linear regression. The note with it: Homo sapiens, HeLa; cancer cells, 72 h MTT. On the procedure: as §1
A further test deals with Huh7. The test is described as follows: cells. Also on record: MTT cell viability/proliferation assay, absorbance 540 minus 660 nm, GI50 by non-linear regression. The note with it: Homo sapiens, Huh-7; cancer cells, 72 h MTT. On the procedure: as §1
A further test relates to IM95. Kind of test: cells. Also on record: MTT cell viability/proliferation assay, absorbance 540 minus 660 nm, GI50 by non-linear regression. The note with it: Homo sapiens, IM95; cancer cells, 72 h MTT. Here is the method:
as §1

The next test deals with MCF7. Kind of test: cells. Also on record: MTT cell viability/proliferation assay, absorbance 540 minus 660 nm, GI50 by non-linear regression. As to conditions: Homo sapiens, MCF7; cancer cells, 72 h MTT. On the procedure: as §1
In the next test the test system is MDA-MB-231. The test is described as follows: cells. On the set-up: MTT cell viability/proliferation assay, absorbance 540 minus 660 nm, GI50 by non-linear regression. The note with it: Homo sapiens, MDA-MB-231; cancer cells, 72 h MTT. On the procedure: as §1
The next test has as its system NCC24. The test is described as follows: cells. The note with it: cancer cells, 72 h MTT. Also on record: MTT cell viability/proliferation assay, absorbance 540 minus 660 nm, GI50 by non-linear regression. Here is the method: as §1
The next test has as its system NCC59. The test is described as follows: cells. The note with it: cancer cells, 72 h MTT. On the set-up: MTT cell viability/proliferation assay, absorbance 540 minus 660 nm, GI50 by non-linear regression. Here is the method: as §1
The subject of another test is NUGC3. Kind of test: cells. Also on record: MTT cell viability/proliferation assay, absorbance 540 minus 660 nm, GI50 by non-linear regression. As to conditions: Homo sapiens, NUGC-3; cancer cells, 72 h MTT. On the procedure:
as §1

A further test relates to SNU-16. The test is described as follows: cells. Also on record: MTT cell viability/proliferation assay, absorbance 540 minus 660 nm, GI50 by non-linear regression. The note with it: Homo sapiens, SNU-16; cancer cells, 72 h MTT. Here is the method:
as §1

The next test deals with SNU1750. The test is described as follows: cells. Also on record: MTT cell viability/proliferation assay, absorbance 540 minus 660 nm, GI50 by non-linear regression. As to conditions: cancer cells, 72 h MTT. Here is the method: as §1
The subject of another test is SNU1. The test is described as follows: cells. Also on record: MTT cell viability/proliferation assay, absorbance 540 minus 660 nm, GI50 by non-linear regression. The note with it: Homo sapiens, SNU1; cancer cells, 72 h MTT. Here is the method: as §1
The next test deals with SNU449. The test is described as follows: cells. On the set-up: MTT cell viability/proliferation assay, absorbance 540 minus 660 nm, GI50 by non-linear regression. As to conditions: Homo sapiens, SNU-449; cancer cells, 72 h MTT. On the procedure:
as §1

The subject of a further test is SNU620. Kind of test: cells. The note with it: SNU620; cancer cells, 72 h MTT. Also on record: MTT cell viability/proliferation assay, absorbance 540 minus 660 nm, GI50 by non-linear regression. On the procedure: as §1

The structures appear in SMILES notation. pIC50: −log10 of the molar value.

T1 sequence (P22830 55-423): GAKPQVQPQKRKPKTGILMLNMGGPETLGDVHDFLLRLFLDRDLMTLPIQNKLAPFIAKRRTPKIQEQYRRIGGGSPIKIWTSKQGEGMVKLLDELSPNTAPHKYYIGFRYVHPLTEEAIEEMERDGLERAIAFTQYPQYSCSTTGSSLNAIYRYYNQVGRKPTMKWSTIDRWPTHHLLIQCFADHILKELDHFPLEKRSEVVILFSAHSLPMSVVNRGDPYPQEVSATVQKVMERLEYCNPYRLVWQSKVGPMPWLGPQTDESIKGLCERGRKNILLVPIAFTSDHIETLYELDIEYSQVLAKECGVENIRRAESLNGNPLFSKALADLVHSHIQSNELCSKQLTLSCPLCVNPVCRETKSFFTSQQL
Sequence of PIP4K2A (P48426 2-406): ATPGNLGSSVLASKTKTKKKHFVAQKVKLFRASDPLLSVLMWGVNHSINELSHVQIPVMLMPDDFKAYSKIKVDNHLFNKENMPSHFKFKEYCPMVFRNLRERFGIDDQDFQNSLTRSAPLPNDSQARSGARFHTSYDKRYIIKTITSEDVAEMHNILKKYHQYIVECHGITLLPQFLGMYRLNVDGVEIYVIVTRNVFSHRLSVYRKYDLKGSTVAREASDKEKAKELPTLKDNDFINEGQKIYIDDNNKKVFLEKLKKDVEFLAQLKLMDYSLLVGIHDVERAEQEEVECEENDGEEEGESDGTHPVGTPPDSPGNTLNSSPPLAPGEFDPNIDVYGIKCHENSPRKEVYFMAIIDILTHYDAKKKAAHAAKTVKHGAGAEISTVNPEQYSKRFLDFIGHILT
Sequence of PIP4K2C (Q8TBX8 2-421): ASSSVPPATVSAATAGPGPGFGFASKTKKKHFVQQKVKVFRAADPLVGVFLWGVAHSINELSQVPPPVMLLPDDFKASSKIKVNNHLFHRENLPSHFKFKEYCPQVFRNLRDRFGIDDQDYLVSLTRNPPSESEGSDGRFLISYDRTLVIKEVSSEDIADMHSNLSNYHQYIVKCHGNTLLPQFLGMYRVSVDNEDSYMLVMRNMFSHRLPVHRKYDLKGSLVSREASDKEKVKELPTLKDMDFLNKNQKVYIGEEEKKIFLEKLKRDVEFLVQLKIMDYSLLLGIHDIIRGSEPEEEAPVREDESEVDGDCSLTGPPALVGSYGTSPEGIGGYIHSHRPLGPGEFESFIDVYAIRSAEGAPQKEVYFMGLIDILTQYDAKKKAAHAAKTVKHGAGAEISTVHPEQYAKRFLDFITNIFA

As to `COc1cc(/C=C(\C#N)C(=O)c2ccc(O)c(O)c2)cc(I)c1O` [I-OMe-AG-538], the pIC50 (usually −log10 of the IC50, conventionally taken in molar units) against PIP4K2A was 5.68.

As for `N#C/C(=C\c1cccc2cnccc12)c1c[nH]c2ccccc12` [a131], at Ferrochelatase, the “MS-CETSA thermal shift in normal BJ cell lysate, 100 μM compound (off-target hit)” value is “Ferrochelatase in a131 and coproporphyrinogen-III oxidase in a166 were identified as prominent hits”. The “MS-CETSA thermal shift in normal BJ cell lysate, 100 μM compound” value on PIP4K2C is “two out of the three family members (PIP4K2A and 2C) in a131”. Moreover, the GI50 (commonly the concentration at which growth is held to half of that of the control) in the test with A549 came to 1.97 µM; with AGS it was 1.13 µM; in the test on HCT116 it was 1.84 µM; with HCT15, 0.545 µM; in the test with HGC27, 1.17 µM; in the test on HT29, 0.915 µM. In addition, the GI50 in the test with HeLa came to 1.44 µM; in the test on Huh7, 1.18 µM; in the test with IM95, 1.04 µM; with MCF7 it was 1.24 µM; in the test on MDA-MB-231, 1.14 µM; with NCC24, 1.23 µM. In addition, the GI50 turned out to be 0.944 µM in the test on NCC59; 1.04 µM in the test on NUGC3; 0.982 µM in the test on SNU-16; 0.747 µM with SNU1750; 0.919 µM in the test on SNU1; 2.27 µM in the test on SNU449. In the test with SNU620, this molecule had a GI50 of 0.982 µM.
